The results in this text go back to PMC4841942 (Cell chemical biology, 2016).

Like-named read-outs stand apart in the source and are kept apart here.

As a reminder, the IC50 is the concentration that gives 50% inhibition.

Experiment [1] deals with HCT116 873-R and 873-S cells. The experiment in a line: Cell viability. It is filed as cell-based.
In experiment [2] the target is T1, p97 complexes in HCT116 cells (Homo sapiens, UniProt P55072). In words: Immunoblot of p97 immunoprecipitated from inhibitor-treated cells. It is filed as cell-based. Particulars: for increase in UFD1/NPL4 binding to p97 relative to control: inhibitor concentrations causing similar CHOP and ATF4 induction. For orientation: Immunoblotting shows a protein as a band on a membrane.
Target sequence in this assay (P55072 2-806 limits assumed, one chain of several): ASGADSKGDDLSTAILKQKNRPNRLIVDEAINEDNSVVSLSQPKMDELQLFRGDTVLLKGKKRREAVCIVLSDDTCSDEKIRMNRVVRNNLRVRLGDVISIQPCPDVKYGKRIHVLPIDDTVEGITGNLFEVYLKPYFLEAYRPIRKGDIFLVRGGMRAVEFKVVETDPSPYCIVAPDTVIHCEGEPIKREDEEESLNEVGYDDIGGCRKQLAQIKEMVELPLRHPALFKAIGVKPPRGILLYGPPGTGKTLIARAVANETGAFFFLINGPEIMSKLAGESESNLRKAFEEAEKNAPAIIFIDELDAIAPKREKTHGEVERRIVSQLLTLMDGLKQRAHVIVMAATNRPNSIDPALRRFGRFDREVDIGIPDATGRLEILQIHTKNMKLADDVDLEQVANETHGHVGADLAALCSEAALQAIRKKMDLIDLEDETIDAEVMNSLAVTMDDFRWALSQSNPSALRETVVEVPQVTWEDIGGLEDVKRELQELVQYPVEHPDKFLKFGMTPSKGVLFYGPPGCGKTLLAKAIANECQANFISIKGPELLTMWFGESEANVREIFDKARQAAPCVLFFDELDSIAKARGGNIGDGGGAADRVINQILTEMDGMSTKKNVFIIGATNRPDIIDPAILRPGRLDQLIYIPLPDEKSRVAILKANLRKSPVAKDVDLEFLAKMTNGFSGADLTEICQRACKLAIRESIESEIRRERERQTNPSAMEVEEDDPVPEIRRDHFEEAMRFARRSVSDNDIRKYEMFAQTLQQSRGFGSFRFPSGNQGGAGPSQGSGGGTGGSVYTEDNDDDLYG

For experiment [3], the target named is T2, p97 WT (Homo sapiens, UniProt P55072). The experiment in a line: ATPase activity assay, recombinant p97 WT. It is filed as biochemical.
T2 sequence (P55072 whole entry): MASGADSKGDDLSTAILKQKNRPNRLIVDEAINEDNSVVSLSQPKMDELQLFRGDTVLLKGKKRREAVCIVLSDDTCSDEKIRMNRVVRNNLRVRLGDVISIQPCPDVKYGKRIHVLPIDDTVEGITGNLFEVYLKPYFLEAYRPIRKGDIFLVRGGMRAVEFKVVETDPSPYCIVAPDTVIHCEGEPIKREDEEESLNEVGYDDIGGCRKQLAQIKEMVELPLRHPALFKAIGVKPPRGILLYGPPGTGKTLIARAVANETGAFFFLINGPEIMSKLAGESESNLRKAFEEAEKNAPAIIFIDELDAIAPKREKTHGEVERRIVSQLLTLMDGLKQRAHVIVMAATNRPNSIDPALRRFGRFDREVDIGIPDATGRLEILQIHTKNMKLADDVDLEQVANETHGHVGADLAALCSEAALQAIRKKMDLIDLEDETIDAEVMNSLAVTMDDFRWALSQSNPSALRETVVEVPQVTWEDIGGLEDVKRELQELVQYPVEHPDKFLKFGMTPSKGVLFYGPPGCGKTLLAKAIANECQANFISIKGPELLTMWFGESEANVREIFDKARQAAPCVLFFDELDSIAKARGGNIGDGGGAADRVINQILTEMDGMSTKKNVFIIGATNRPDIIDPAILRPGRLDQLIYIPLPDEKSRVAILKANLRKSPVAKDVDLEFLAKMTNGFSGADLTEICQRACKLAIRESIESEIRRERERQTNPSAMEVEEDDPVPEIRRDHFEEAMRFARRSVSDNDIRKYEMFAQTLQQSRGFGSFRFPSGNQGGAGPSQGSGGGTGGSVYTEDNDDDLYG
Experiment [4] addresses T3, p97 A530T (Homo sapiens, UniProt P55072, A530T). In words: TR-FRET binding assay. Conditions: for increase in apparent Kd for A530T: A530T versus WT. For orientation: Time-resolved FRET reads energy transfer from a long-lived donor to a nearby acceptor.
Experiment [5] concerns the target T2, p97 WT. In words: TR-FRET binding assay.
For experiment [6], the target named is T3, p97 A530T. The experiment in a line: ATPase activity assay, recombinant p97 A530T. The experiment is classed as biochemical.
In experiment [7] the target is T1, p97 complexes in HCT116 cells. The experiment in a line: LC-MS/MS analysis of p97 complexes purified from inhibitor-treated cells. Particulars: HCT116, 5 µM NMS-873, 6 hours, LC-MS/MS spectrum count. The experiment is classed as cell-based.
Target sequence in this assay (P55072 whole entry, one chain of several): as the sequence (P55072 whole entry) above
For experiment [8], the system named is CHOP, ATF4 and polyubiquitin in HCT116 cells. In words: Immunoblot of biomarkers of p97 inhibition. Conditions: 6 hours. It is filed as cell-based.
Experiment [9] deals with HCT116 cells engineered with p97 A530T. The experiment in a line: Cell viability. It is filed as cell-based. Particulars: homozygous A530T.
Where [10] appears, read: HCT116, 1 hour, concentration dependent, immunoblot.
The mark [11] stands for this setting: HCT116, after washout of 5 µM NMS-873 (120 minutes).

T3 sequence (P55072 whole entry A530T): as the sequence (P55072 whole entry) above, with A530T counted along it

For `CC1(C)C(N(O)C(=O)Nc2ccc(Cl)cc2)N(c2ccc(Cl)cc2)C(=O)N1CC(=O)N/N=C/C=C/c1ccc([N+](=O)[O-])o1` (stereo not drawn) [EerI, Eeyarestatin I], the “sensitivity of 873-R compared with 873-S cells” value in experiment [1] was “similarly sensitive”. Moreover, the “increase in UFD1/NPL4 binding to p97 relative to control” value in [2] (HCT116, 1 hour) is given as “up to 2.1 fold”.

As to `Nc1ncnc2c1ncn2[C@@H]1O[C@H](CO[P@](=O)(O)O[P@](=O)(O)O[P@@](=O)(O)S)[C@@H](O)[C@H]1O` [ATP-γ-S], the IC50 in [3] was 247 nM; in experiment [6], 6600 nM. Also, the Kd worked out at 140 nM in experiment [4] and 25 nM in [5]. For the same molecule, the “increase in apparent Kd for A530T” value in [4] is reported as 5- to 6 fold.

On to `Cc1cc(OCc2nnc(SC3CCCC3)n2-c2cccnc2)ccc1-c1ccc(S(C)(=O)=O)cc1` [NMS-873], for which, in [7], the “increase in ubiquitin bound to p97” value is 15 fold. In addition, in experiment [2] (setting [10]), the “increase in UFD1 and NPL4 bound to p97” value was 12- to 15 fold; the “increase in p47 bound to p97” value stood at 2.5 fold. Besides, in experiment [2] (setting [11]), the “t1/2 of decrease of NPL4 binding to p97 during recovery” value worked out at 17 min and the “t1/2 of decrease of UFD1 binding to p97 during recovery” value is reported as 13 min. Besides, in experiment [8] (NMS-873 2 and 5 µM, CB-5083 0.3 and 2.5 µM), the “induction of CHOP, ATF4 and polyubiquitin in 873-R compared with 873-S cells” value is listed as “diminished responses”. Further, the “induction of CHOP, ATF4 and polyubiquitin in engineered A530T cells” value in experiment [8] (HDR cells homozygous for A530T) is on record as “diminished induction”.

For `CC(C)C[C@H](NC(=O)[C@H](Cc1ccccc1)NC(=O)c1cnccn1)B(O)O` [bortezomib], in [1], the “sensitivity of 873-R compared with 873-S cells” value is reported as “similarly sensitive”.

On to `Nc1ncnc2c1ncn2[C@@H]1O[C@H](COP(=O)(O)OP(=O)(O)O)[C@@H](O)[C@H]1O` [ADP], for which the “fold less sensitive to ADP than ATP-γ-S” value in experiment [3] (WT ATPase activity) is reported as 18 fold; in [6] (A530T ATPase activity), 3.7 fold. The IC50 amounted to 4500 nM in experiment [3] (read-out: IC50 ATPase activity, WT p97) and 24600 nM in [6] (read-out: IC50 ATPase activity, A530T p97). Moreover, the “increase in apparent Kd for A530T” value in experiment [4] is 5- to 6 fold. Besides, the Kd is 3800 nM in experiment [4] (read-out: apparent Kd, A530T p97, TR-FRET) and 600 nM in experiment [5] (read-out: apparent Kd, WT p97, TR-FRET, non-linear regression).

For `Cc1cc2c(C(N)=O)cccc2n1-c1nc2c(c(NCc3ccccc3)n1)COCC2` [CB-5083], the “sensitivity of engineered A530T cells” value in experiment [9] is given as “remained sensitive”. Besides, the “sensitivity of 873-R compared with 873-S cells” value in experiment [1] was “similarly sensitive”.

Regarding `C[C@H]1CCC/C=C/[C@@H]2C[C@H](O)C[C@H]2[C@H](O)/C=C/C(=O)O1` [brefeldin A], in experiment [1], the “sensitivity of 873-R compared with 873-S cells” value was “similarly sensitive”.

As for `CC(C)C[C@H](NC(=O)[C@H](CCc1ccccc1)NC(=O)CN1CCOCC1)C(=O)N[C@@H](Cc1ccccc1)C(=O)N[C@@H](CC(C)C)C(=O)[C@@]1(C)CO1` [carfilzomib], the “sensitivity of 873-R compared with 873-S cells” value in experiment [1] is given as “similarly sensitive”.

As to `O[C@@H](CS)[C@@H](O)CS` [DTT], the “sensitivity of 873-R compared with 873-S cells” value in experiment [1] is reported as “similarly sensitive”.

Take NMS-859: the “sensitivity of 873-R compared with 873-S cells” value in [1] is given as “similarly sensitive”. In experiment [2] (HCT116, 1 hour), the “increase in UFD1/NPL4 binding to p97 relative to control” value is “up to 2.1 fold”.

With tunicamycin, the “sensitivity of 873-R compared with 873-S cells” value in experiment [1] was “similarly sensitive”.

As to `c1ccc(CNc2nc(NCc3ccccc3)c3ccccc3n2)cc1` [DBeQ], the “sensitivity of 873-R compared with 873-S cells” value in [1] is on record as “similarly sensitive”. The “increase in UFD1/NPL4 binding to p97 relative to control” value in [2] (HCT116, 1 hour) is “up to 2.1 fold”.

B1: p47: recombinant p97 cofactor protein with N-terminal hexahistidine tag (protein)
chain: MAAERQEALREFVAVTGAEEDRARFFLESAGWDLQIALASFYEDGGDEDIVTISQATPSSVSRGTAPSDNRVTSFRDLIHDQDEDEEEEEGQRFYAGGSERSGQQIVGPPRKKSPNELVDDLFKGAKEHGAVAVERVTKSPGETSKPRPFAGGGYRLGAAPEEESAYVAGEKRQHSSQDVHVVLKLWKSGFSLDNGELRSYQDPSNAQFLESIRRGEVPAELRRLAHGGQVNLDMEDHRDEDFVKPKGAFKAFTGEGQKLGSTAPQVLSTSSPAQQAENEAKASSSILIDESEPTTNIQIRLADGGRLVQKFNHSHRISDIRLFIVDARPAMAATSFILMTTFPNKELADESQTLKEANLLNAVIVQRLT
modifications: left off: His6, N-terminal, state not stated
Take B1: the “cofactor concentration of maximum inhibition of ATPase activity” value in [3] (WT p97, biphasic response, recovery at 200 nM) was found to be 3.1 nM.
